Assay results: patent US6787342B2, “Paste formulations” (Merial Limited, priority 2000, dated 2004)

Experiments:
[1] = Thermodynamic stability of polymorphic forms (DSC, Burger's rule); format: physicochemical; conditions: monotropic system
Source text: When heated, form A transforms to form B depending on the heating rate.
Therefore, the transition A→B is under kinetic control as usual in case of polymorphism. The transition from A to B may also be followed by XRay under heating (FIG. 12).

[2] = Carr Index (compressibility/flowability) of unmilled polymorphic forms; format: physicochemical
Source text: After crystallization and before micronization, the Carr Index of B form is lower than 10 (in %). The Can Index CI is defined as [formula] where P is the packed bulk density (g cm^−3), L is the loose bulk density (g cm 3). CI is also known as a compressibility index. A low figure for Cl corresponds to a high degree of flowability. The Carr Index way be calculated from Mercury Intrusion Porosimetry or measured by Tap-Tap.

[3] = tested on: Cooperia onocophora and Nematodirus; conditions: against Cooperia onocophora and Nematodirus; cited from earlier work

Compound | thermodynamic stability of polymorphic form [1] | thermodynamic stability of polymorphic form ([1]; listed as B form) | Carr Index ([2]; after crystallization and before micronization) | flow characteristics ([2]; compared with Polymorph A) | ivermectin plasma level required for efficacy [3]
CC1(C)OC(=O)C(OCC2CC2)=C1c1ccc(S(C)(=O)=O)cc1 [Polymorph B, 3-(cyclopropylmethoxy)-4-[4-(methylsulfonyl)phenyl]-5,5-dimethyl-5H-furan-2-one] | thermodynamically more stable than Polymorph A | the most stable form | lower than 10% | better flow characteristics than Polymorph A | –
22,23-dihydro avermectin Bla/Blb [ivermectin] | – | – | – | – | 3 to 4 ng/mL
